Measured values published in US20230114728A1 (Venatorx Pharmaceuticals, Inc., priority 2019, published 2023).
In brackets after ≈: the same amount, converted by molar mass.

How the values were obtained:
P. aeruginosa PBP3 = target: T1, P. aeruginosa PBP3 (Pseudomonas aeruginosa, UniProt G3XD46); assay: Bocillin-FL fluorescence polarization competition binding assay, P. aeruginosa PBP3; conditions: fluorescence polarization competition binding assay using Bocillin-FL
T1 construct: made in house
Procedure, shortened: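 Binding of boronic acid inhibitors to purified Pseudomonas aeruginosa (PA01) PBP3 was measured by fluorescence polarization competition with Bocillin-FL, a fluorescent penicillin V. Reactions of 80 μl contained 0.75 μM PBP3 and 0.1 μM Bocillin-FL in 50 mM Hepes (pH 8.0), 300 mM NaCl and 5% (v/v) glycerol, in black 384-well plates. FP (Excitation 490 nm, Emission 520 nm) was read for up to 60 minutes. EC50 is the concentration that halves PBP-bound Bocillin-FL.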

[1] = Bocillin-FL fluorescence polarization competition binding assay, A. baumannii PBP3; conditions: fluorescence polarization competition binding assay using Bocillin-FL; column 3; read-out: 4. baumannii PBP1a Potency
Procedure, shortened: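 Fluorescence polarization (ex 490/em 520 nm) competition of inhibitors against Bocillin-FL at 0.1 μM, read up to 60 min. Final PBP levels: E. coli PBP3 1.5 μM; A. baumannii PBP2 2.5 μM, PBP3 0.2 μM in Tris pH 8.0/NaCl/glycerol/Tween 20; N. gonorrhoeae PBP2 […] in Hepes pH 8.0/NaCl/glycerol. EC50 = concentration halving PBP-bound Bocillin-FL.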

N. gonorrhoeae WHO Q = assay: Liquid broth MIC in Fastidious broth; type: cell-based; conditions: Neisseria gonorrhoeae, read-out: Minimum Inhibitory Concentration, N. gonorrhoeae WHO Q
Procedure, shortened: (§1)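 Broth microdilution in Fastidious broth with 2-fold compound series; inoculum from 24 h chocolate agar colonies, 5×10^5 CFU/mL start. Incubated ~24 hours at 36° C, 5% CO2. MIC read visually as lowest concentration giving <10% growth versus full-growth wells; strains carry mosaic PBP2.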

N. gonorrhoeae WHO Z = assay: Liquid broth MIC in Fastidious broth; type: cell-based; conditions: Neisseria gonorrhoeae, read-out: Minimum Inhibitory Concentration, N. gonorrhoeae WHO Z
Procedure, shortened: as §1

T1 sequence (G3XD46 whole entry): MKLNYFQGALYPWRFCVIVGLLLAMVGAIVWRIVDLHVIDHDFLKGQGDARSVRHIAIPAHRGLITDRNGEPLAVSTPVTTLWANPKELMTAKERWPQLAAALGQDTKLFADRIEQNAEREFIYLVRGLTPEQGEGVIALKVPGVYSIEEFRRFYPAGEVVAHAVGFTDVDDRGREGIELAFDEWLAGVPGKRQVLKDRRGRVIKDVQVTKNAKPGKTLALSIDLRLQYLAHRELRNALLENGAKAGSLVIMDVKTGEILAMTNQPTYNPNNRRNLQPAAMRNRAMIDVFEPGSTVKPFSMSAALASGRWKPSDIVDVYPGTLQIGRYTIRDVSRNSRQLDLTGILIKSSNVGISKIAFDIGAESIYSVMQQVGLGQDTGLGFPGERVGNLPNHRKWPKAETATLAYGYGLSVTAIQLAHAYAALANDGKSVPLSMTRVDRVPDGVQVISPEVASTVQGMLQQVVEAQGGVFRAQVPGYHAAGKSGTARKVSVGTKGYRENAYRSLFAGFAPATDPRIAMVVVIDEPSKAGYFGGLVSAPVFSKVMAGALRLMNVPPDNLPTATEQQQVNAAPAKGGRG

Compound	P. aeruginosa PBP3 Potency (P. aeruginosa PBP3)	EC50 [1] [µM]	MIC (N. gonorrhoeae WHO Q) [µg/mL]	MIC (N. gonorrhoeae WHO Z) [µg/mL]
NCCN1CCN(C(=O)N[C@@H](C(=O)N[C@H]2Cc3cccc(C(=O)O)c3OB2O)c2ccc(O)cc2Cl)C(=O)C1=O (single isomer, unassigned) [Example 86]	D (D represents a potency <10 μM)	10 to 30	> 64	> 64
CCN1CCN(C(=O)NC(C(=O)N[C@H]2Cc3cccc(C(=O)O)c3OB2O)c2cccc(NC(=O)c3ccc(O)c(O)c3Cl)c2)C(=O)C1=O (stereo partly drawn) [Example 73, (3R)-3-(2-(3-(2-chloro-3,4-dihydroxybenzamido)phenyl)-2-(4-ethyl-2,3-dioxopiperazine-1-carboxamido)acetamido)-2-hydroxy-3,4-dihydro-2H-benzo[e][1,2]oxaborinine-8-carboxylic acid]	D (D represents a potency <10 μM)	< 10	> 64	> 64
CCN1CCN(C(=O)NC(C(=O)N[C@H]2Cc3cccc(C(=O)O)c3OB2O)c2ccc(C(=O)O)c(F)c2)C(=O)C1=O (stereo partly drawn) [Example 31, (3R)-3-(2-(4-carboxy-3-fluorophenyl)-2-(4-ethyl-2,3-dioxopiperazine-1-carboxamido)acetamido)-2-hydroxy-3,4-dihydro-2H-benzo[e][1,2]oxaborinine-8-carboxylic acid]	D (D represents a potency <10 μM)	< 10	–	1 to 2 (≈ 1.75 to 3.51 µM)
CCN1CCN(C(=O)NC(C(=O)N[C@H]2Cc3ccc(F)c(C(=O)O)c3OB2O)c2c(F)cc(O)c(O)c2F)C(=O)C1=O (stereo partly drawn) [Example 36, (3R)-3-(2-(2,6-difluoro-3,4-dihydroxyphenyl)-2-(4-ethyl-2,3-dioxopiperazine-1-carboxamido)acetamido)-7-fluoro-2-hydroxy-3,4-dihydro-2H-benzo[e][1,2]oxaborinine-8-carboxylic acid]	D (D represents a potency <10 μM)	10 to 30	–	–
CCN1CCN(C(=O)NC(C(=O)N[C@H]2Cc3ccc(F)c(C(=O)O)c3OB2O)c2ccc(C(=O)O)cc2)C(=O)C1=O (stereo partly drawn) [Example 15, (3R)-3-(2-(4-carboxyphenyl)-2-(4-ethyl-2,3-dioxopiperazine-1-carboxamido)acetamido)-7-fluoro-2-hydroxy-3,4-dihydro-2H-benzo[e][1,2]oxaborinine-8-carboxylic acid]	D (D represents a potency <10 μM)	> 100	–	1 to 2 (≈ 1.75 to 3.51 µM)
O=C(O)c1c(F)ccc2c1OB(O)[C@@H](NC(=O)C(NC(=O)N1CCN(CCF)C(=O)C1=O)c1c(F)cc(O)c(O)c1F)C2 (stereo partly drawn) [Example 37, (3R)-3-(2-(2,6-difluoro-3,4-dihydroxyphenyl)-2-(4-(2-fluoroethyl)-2,3-dioxopiperazine-1-carboxamido)acetamido)-7-fluoro-2-hydroxy-3,4-dihydro-2H-benzo[e][1,2]oxaborinine-8-carboxylic acid]	D (D represents a potency <10 μM)	30 to 100	–	–
CCN1CCN(C(=O)NC(C(=O)N[C@H]2Cc3cccc(C(=O)O)c3OB2O)c2ccc(O)c(NC(=O)c3ccc(O)c(O)c3Cl)c2)C(=O)C1=O (stereo partly drawn) [Example 74, (3R)-3-(2-(3-(2-chloro-3,4-dihydroxybenzamido)-4-hydroxyphenyl)-2-(4-ethyl-2,3-dioxopiperazine-1-carboxamido)acetamido)-2-hydroxy-3,4-dihydro-2H-benzo[e][1,2]oxaborinine-8-carboxylic acid]	D (D represents a potency <10 μM)	< 10	> 64	> 64
O=C(O)c1ccc(C(NC(=O)c2ccc(O)c(O)c2Cl)C(=O)N[C@H]2Cc3cccc(C(=O)O)c3OB2O)cc1F (stereo partly drawn) [Example 7, (3R)-3-(2-(4-carboxy-3-fluorophenyl)-2-(2-chloro-3,4-dihydroxybenzamido)acetamido)-2-hydroxy-3,4-dihydro-2H-benzo[e][1,2]oxaborinine-8-carboxylic acid]	D (D represents a potency <10 μM)	> 100	–	–
NCCN1CCN(C(=O)N[C@@H](C(=O)N[C@H]2Cc3cccc(C(=O)O)c3OB2O)c2ccc(C(=O)O)cc2)C(=O)C1=O (single isomer, unassigned) [Example 84]	D (D represents a potency <10 μM)	30 to 100	16 to 32 (≈ 28.2 to 56.4 µM)	16 to 32 (≈ 28.2 to 56.4 µM)
NCCN1CCN(C(=O)N[C@@H](C(=O)N[C@H]2Cc3ccc(F)c(C(=O)O)c3OB2O)c2c(F)cc(O)c(O)c2F)C(=O)C1=O (single isomer, unassigned) [Example 40]	D (D represents a potency <10 μM)	> 100	–	–
CCN1CCN(C(=O)NC(C(=O)N[C@H]2Cc3ccc(F)c(C(=O)O)c3OB2O)c2cc(F)c(O)c(O)c2Cl)C(=O)C1=O (stereo partly drawn) [Example 42, (3R)-3-(2-(2-chloro-5-fluoro-3,4-dihydroxyphenyl)-2-(4-ethyl-2,3-dioxopiperazine-1-carboxamido)acetamido)-7-fluoro-2-hydroxy-3,4-dihydro-2H-benzo[e][1,2]oxaborinine-8-carboxylic acid]	D (D represents a potency <10 μM)	30 to 100	–	–
CS(=O)(=O)N1CCN(C(=O)N[C@@H](C(=O)N[C@H]2Cc3ccc(F)c(C(=O)O)c3OB2O)c2c(F)cc(O)c(O)c2Cl)C1=O (single isomer, unassigned) [Example 35]	D (D represents a potency <10 μM)	30 to 100	–	–
CC(C)(C)[C@@H](NC(=O)N1CCN(CCNC(=O)c2c(F)cc(O)c(O)c2Cl)C(=O)C1=O)C(=O)N[C@H]1Cc2ccc(F)c(C(=O)O)c2OB1O [Example 80, (R)-3-((R)-2-(4-(2-(2-chloro-6-fluoro-3,4-dihydroxybenzamido)ethyl)-2,3-dioxopiperazine-1-carboxamido)-3,3-dimethylbutanamido)-7-fluoro-2-hydroxy-3,4-dihydro-2H-benzo[e][1,2]oxaborinine-8-carboxylic acid]	D (D represents a potency <10 μM)	< 10	> 64	> 64
NCCCN1CCN(C(=O)N[C@@H](C(=O)N[C@H]2Cc3ccc(F)c(C(=O)O)c3OB2O)c2c(F)cc(O)c(O)c2F)C(=O)C1=O (single isomer, unassigned) [Example 41]	D (D represents a potency <10 μM)	30 to 100	–	–
O=C(Nc1ccc(O)c(O)c1Cl)NC(C(=O)N[C@H]1Cc2ccc(F)c(C(=O)O)c2OB1O)c1ncc(O)cc1F (stereo partly drawn) [Example 9, (3R)-3-(2-(3-(2-chloro-3,4-dihydroxyphenyl)ureido)-2-(3-fluoro-5-hydroxypyridin-2-yl)acetamido)-7-fluoro-2-hydroxy-3,4-dihydro-2H-benzo[e][1,2]oxaborinine-8-carboxylic acid]	D (D represents a potency <10 μM)	30 to 100	–	–
NCCCN1CCN(C(=O)N[C@@H](C(=O)N[C@H]2Cc3ccc(F)c(C(=O)O)c3OB2O)c2c(F)cc(O)c(O)c2Cl)C(=O)C1=O (single isomer, unassigned) [Example 27]	D (D represents a potency <10 μM)	30 to 100	–	–
O=C(NC(C(=O)N[C@H]1Cc2ccc(F)c(C(=O)O)c2OB1O)c1ncc(O)cc1F)c1ccc(O)c(O)c1Cl (stereo partly drawn) [Example 8, (3R)-3-(2-(2-chloro-3,4-dihydroxybenzamido)-2-(3-fluoro-5-hydroxypyridin-2-yl)acetamido)-7-fluoro-2-hydroxy-3,4-dihydro-2H-benzo[e][1,2]oxaborinine-8-carboxylic acid]	D (D represents a potency <10 μM)	> 100	–	–
O=C(O)c1ccc(C(NC(=O)N2CCN(CCNC(=O)c3ccc(O)c(O)c3Cl)C(=O)C2=O)C(=O)N[C@H]2Cc3ccc(F)c(C(=O)O)c3OB2O)cc1F (stereo partly drawn) [Example 11, (3R)-3-(2-(4-carboxy-3-fluorophenyl)-2-(4-(2-(2-chloro-3,4-dihydroxybenzamido)ethyl)-2,3-dioxopiperazine-1-carboxamido)acetamido)-7-fluoro-2-hydroxy-3,4-dihydro-2H-benzo[e][1,2]oxaborinine-8-carboxylic acid]	–	10 to 30	–	16 to 32 (≈ 20.7 to 41.4 µM)
NCCN1CCN(C(=O)N[C@@H](C(=O)N[C@H]2Cc3ccc(F)c(C(=O)O)c3OB2O)c2c(F)cc(O)c(O)c2Cl)C(=O)C1=O (single isomer, unassigned) [Example 26]	D (D represents a potency <10 μM)	30 to 100	–	–
NC(C(=O)N[C@H]1Cc2ccc(F)c(C(=O)O)c2OB1O)c1c(F)cc(O)c(O)c1Cl (stereo partly drawn) [Example 25, (3R)-3-(2-amino-2-(2-chloro-6-fluoro-3,4-dihydroxyphenyl)acetamido)-7-fluoro-2-hydroxy-3,4-dihydro-2H-benzo[e][1,2]oxaborinine-8-carboxylic acid]	B (B represents a potency between 30 μM and 500 μM inclusive)	> 100	–	–
